Key:
[1] = test system: diploidem Roggen Voskhod 2; test: Field test of gametocidal activity, diploid rye Voskhod 2; assay type: in vivo; settings: period V, 1% aqueous emulsion, 10 kg/ha in 1000 l water; for Prozentsatz des Ansetzens von Samen bei freier Bestäubung: control = 100
Excerpt: (§1) Die gametozide Aktivität der erfindungsgemäßen Sterilisationsmittel war in Feldversuchen in verschiedenen bodenklimatischen Zonen mit Teilstücken von 10 m^2 Größe in dreibis viermaliger Wiederholung festgestellt. Jedes Sterilisationsmittel wurde mindenstens 5 Jahre lang geprüft.
(§2) Die Entwicklung der Perioden der Organogenese wird zytologisch überwacht. Die Behandlung von Pflanzen mit dem Sterilisationsmittel erfolgt am Anfang der fünften Periode der Organogenese nach Kupermann.
(§3) Mit dem Ährenschieben verwirklicht man die Isolierung von Hauptähren und anderen Stockwerken in Pergametbeuteln. Bei Weizen und Tritikale werden Einzelisolatoren benutzt. Bei Roggen schließt man je 1 Ähre von […] verschiedenen nebeneinander befindlichen Pflanzen unter einen gemeinsamen Isolator ein. Bei Hirse wird jede Rispe getrennt isoliert. Der Sterilitätsprozentsatz (X) für Weizen, Roggen, Tritikale und Hirse wird nach der Formel [formula] ermittelt.
(§4) Die Kornzahl in nicht isolierten Ähren von Kontrollpflanzen wird bedingt für 100 % Ansetzen bei freier Bestäubung angenommen.
(§5) Um zuverlässige Angaben zu erhalten, verwendet man 20 bis 25 Isolatoren je Wiederholung für Weizen und Tritikale, 10 bis 15 Isolatoren jeder Wiederholung für Roggen und Hirse.
Pflanzen von diploidem Roggen Voskhod 2 werden in der V. Periode der Organogenese mit einer 1%igen wäßrigen Emulsion von 1,1,3-Tribrompropan, 1,1,3-Tribrom-4-chlorbutan bzw. 1,1,2,3-Tetrabrompropan behandelt. Die Emulsion enthält 0,5 Masse% C12-C14-Kalziumalkylbenzolsulfonat und 0,01 Masse% Dimethylformamid. Der Verbrauch an Präparat beträgt 10 kg/ha bei 1000 1 Wasserdurchsatz. Die Prüfergebnisse sind in der Tabelle 14 angegeben. Die gleichen Ergebnisse sind bei der Behandlung von diploidem Roggen Voskhod 2 in der VI. Periode der Organogenese erhalten..

[2] = test system: Winterweizens Sorte Mironowskaya 808; test: Field test of gametocidal activity (anther sterilisation), winter wheat Mironowskaya 808; assay type: in vivo, Weizen; settings: read-out: Prozentsatz der Sterilität %
[3] = test system: tetraploidem Roggen Belta; test: Field test of gametocidal activity, tetraploid rye Belta; assay type: in vivo; settings: period V, 1% aqueous emulsion, 6 kg/ha in 600 l water; for Prozentsatz des Ansetzens von Samen bei freier Bestäubung: control = 100
Excerpt: as §1, §2, §3, §4, §5
Pflanzen von tetraploidem Roggen Belta werden in der V.Periode der Organogenese (nach Kupermann) mit einer 1%igen wäßrigen Emulsion von 1,1,3-Tribrompropan, 1,1,3--Tribrom-4-chlorbutan, 1,1,2,3-Tetrabrompropan, 1,2,3-Tribrompropan, 1,1,3-Tribrom-3-chlorpropan bzw. 1,2-Dibrom--3-chlorpropan behandelt.
Die Emulsion enthält 0,5 Masse% C12-C14-Kalziumalk^yl-benzolsulfonat und 0,01 Masse% Dimethylsulfoxid. Der Verbrauch an Präparat beträgt 6 kg/ha bei 600 1 Wasserdurchsatz.Die Prüfergebnisse sind in der Tabelle 7 angegeben. Die gleichen Ergebnisse sind bei der Behandlung von tetraploidem Roggen Belta in der VI. Periode der Organogenese erhalten.

diploidem Roggen Chulpan = test: Field test of gametocidal activity, diploid rye Chulpan; assay type: in vivo; settings: for Kornzahl der Ähre bei freier Bestäubung / Kornzahl der Ähre im Isolator / Prozentsatz des Ansetzens von Samen bei freier Bestäubung: Chulpan, period V, 1% aqueous emulsion, 10 kg/ha; for Prozentsatz des Ansetzens von Samen bei freier Bestäubung: control = 100; for pest or weed control at 10000 g/ha: read-out: Prozentsatz der Sterilität
Excerpt: as §1, §2, §3, §4, §5
Pflanzen von diploidem Roggen Chulpan werden in der V.Periode der Organogenese mit einer 1%igen wäßrigen Emulsion von 1,1,3-Tribrompropan, 1,1,3-Tribrom-4-chlorbutan, 1,1,2,3-Tetrabrompropan, 1,2,3-Tribrompropan, 1,2-Dibrompropan, 1,1,3-Tribrom-3-ohlorpropan, 1,2-Dibrom-3--chlorpropan, 1,3-Dibrompropan, 1,1,1,3-Tetrabromheptan, 1,1,3-Tribromheptan bzw. 1,2-Dibromheptan behandelt. Die Emulsion enthält 0,5 Masse% C12-C14-Kalziumalkylbenzolsul- fonat und 0,01 Masse% Dimethylsulfoxid. Der Verbrauch an Präparat beträgt 10 kg/ha. Die Prüfergebnisse sind in der Tabelle 11 angegeben. Die gleichen Ergebnisse sind bei der Behandlung von diploidem Roggen Chulpan in der VI. Periode der Organogenese erhalten.

[4] = test system: Sommerweizens Sorte Moskowskaya 35; test: Field test of gametocidal activity, spring wheat Moskowskaya 35; assay type: in vivo, Weizen; settings: for Kornzahl der Ähre bei freier Bestäubung / Kornzahl der Ähre im Isolator / Prozentsatz des Ansetzens von Samen bei freier Bestäubung: Moskowskaya 35, period V, 1% aqueous emulsion, 6 kg/ha in 600 l water; for Prozentsatz des Ansetzens von Samen bei freier Bestäubung: control = 100; for pest or weed control at 6000 g/ha: read-out: Prozentsatz der Sterilität
Excerpt: as §1, §2, §3, §4, §5
Pflanzen des Sommerweizens Sorte Moskowskaya 35 werden in der V. Periode der Organogenese (nach Kupermann) mit einer l%igen wäßrigen Emulsion von 1,1,3-Tribrompropan, […], 1,1,2,3-Tetrabrompropan, 1,2,3-Tribrompropan, 1,2-Dibrompropan, 1,1,3-Tribrom-3-chlorpropan, 1,2-Dibrom-3-chlorpropan, 1,3-Dibrompropan, 1,1,1,3-Tetrabromheptan bzw. 1,1,3-Tribromheptan behandelt. Die Emulsion enthält als Emulgierungsmittel 0,5 Masse% C12-C14-Kalzium- alkylbenzolsulfonat und als Adjuvans 0,01 Masse% Dimethylformamid. Der Verbrauch an Präparat beträgt 6 kg/ha bei 600 1 Wasserdurchsatz. Als Kontrolle dienen Pflanzen, behandelt mit dem Verdünner ohne Sterilisationsmittel.
Die Prüfergebnisse sind in der Tabelle 2 angegeben. Die gleichen Ergebnisse sind bei der Behandlung des Sommerweizens Sorte Moskowskaya 35 in der VI.Periode der Organogenese erhalten.

[5] = test system: Winterweizens Sorte Mironowskaya 808; test: Field test of gametocidal activity (anther sterilisation), winter wheat Mironowskaya 808; assay type: in vivo, Weizen; settings: Mironowskaya 808, period V of organogenesis, 2% aqueous emulsion, 20 kg/ha in 1000 l water; for Prozentsatz des Ansetzens von Samen bei freier Bestäubung: control = 100
Excerpt: as §1, §2, §3, §4, §5
Pflanzen des Winterweizens Sorte Mironowskaya 808 werden in der V.Periode der Organogenese durch Zerstäubung der 2%igen wäßrigen Emulsion von 1,1,3-Tribrompropan mit Hilfe einer Rückenspritze behandelt.
Als Emulgierungsmittel setzt man 0,5 Masse% C12-C14--Kalziumalkylbenzolsulphonat zu. Als Adjuvans enthält die Emulsion 0,01 Masse% Dimethylsulfoxid. Der Verbrauch an Präparat beträgt 20 kg/ha bei 1000 Liter Wasserdurchsatz. Als Kontrolle dienen Pflanzen, behandelt mit einem Verdünner ohne Sterilisationsmittel. Die Ergebnisse sind in der Tabelle 1 angegeben.
Der ProzeB wird analog zu dem in Beispiel 1 beschriebenen durchgeführt. Als Sterilisationsmittel verwendet man eine 2%ige waßrige Emulsion von 1,1,3-Tribrom-4-chlorbutan, 1,1,2,3-Tetrabrompropan. Die Prüfergebnisse sind in der Tabelle 1 angegeben.
Der Prozeß wird analog zu dem in Beispiel 1 beschriebenen durchgeführt, nur daß man 1%ige wäßrige Emulsion von 1,2,3-Tribrompropan, 1,2-Dibrompropan, 1,1,3-Tribrom-3--chlorpropan, 1,2-Dibrom-3-chlorpropan, 1,3-Dibrompropan, 1,1,1,3-Tetrabromheptan, 1,1,3-Tribromheptan, 1,2-Dibromheptan verwendet. Die Präparatdosis beträgt 10 kg ha. Die Prüfergebnisse sind in der Tabelle 1 angegeben. Die gleichen Ergebnisse sind bei der Behandlung des Weizens Sorte Mironowskaya 808 in der VI. Periode der Organogenese erhalten.

Row | Compound | Kornzahl der Ähre bei freier Bestäubung [1] | Kornzahl der Ähre unter Isolator [1] | Prozentsatz der Sterilität [1] | Prozentsatz des Ansetzens von Samen bei freier Bestäubung [1] | pest or weed control at 1 %, 20000 g/ha [2] [%] | Kornzahl der Ähre bei freier Bestäubung [3] | Kornzahl der Ähre im Isolator [3] | Prozentsatz der Sterilität [3] | Prozentsatz des Ansetzens von Samen bei freier Bestäubung [3] | Kornzahl der Ähre bei freier Bestäubung (diploidem Roggen Chulpan) | Kornzahl der Ähre im Isolator (diploidem Roggen Chulpan) | Prozentsatz des Ansetzens von Samen bei freier Bestäubung (diploidem Roggen Chulpan) | pest or weed control at 10000 g/ha (diploidem Roggen Chulpan) [%] | Kornzahl der Ähre bei freier Bestäubung [4] | Kornzahl der Ähre im Isolator [4] | Prozentsatz des Ansetzens von Samen bei freier Bestäubung [4] | pest or weed control at 6000 g/ha [4] [%] | Kornzahl der Ähre bei freier Bestäubung [5] | Kornzahl der Ähre im Isolator [5] | Prozentsatz des Ansetzens von Samen bei freier Bestäubung [5]
1 | ClCC(Br)CC(Br)Br (stereo not shown) [Beispiel 2, 1,1,3-Tribrom-4-chlorbutan] | 52,4 | 1,0 | 97,2% | 96,0% | 97.3 | 42,6 | 0,8 | 98,0% | 96,4% | 47,8 | 1,0 | 95,4% | 98 | 36,5 | 0,6 | 95,5% | 99.2 | 41,3 | 1,1 | 86,0%
2 | BrCC(Br)C(Br)Br (stereo not shown) [Beispiel 3, 1,1,2,3-Tetrabrompropan] | 45,7 | 0,2 | 99,6% | 83,7% | 97.3 | 40,1 | 0,6 | 98,5% | 90,7% | 44,3 | 0,4 | 88,4% | 99.2 | 31,8 | 0,3 | 83,2% | 99.1 | 35,1 | 1,0 | 94,1%
